The compounds below were run against T1, SmCA (Schistosoma mansoni, UniProt A0A4Y5UX87) (assay: stopped-flow CO2 hydrase assay). Settings: not given.
T1 construct: rSmCA N21-A298, signal peptide and C-terminal GPI-anchoring signal removed; Igk leader, C-terminal myc and His6 tags; secreted by CHO-S cells, IMAC; codon-optimized gene; native ~37 kDa GPI-linked glycoprotein
T1 sequence (A0A4Y5UX87 21-298): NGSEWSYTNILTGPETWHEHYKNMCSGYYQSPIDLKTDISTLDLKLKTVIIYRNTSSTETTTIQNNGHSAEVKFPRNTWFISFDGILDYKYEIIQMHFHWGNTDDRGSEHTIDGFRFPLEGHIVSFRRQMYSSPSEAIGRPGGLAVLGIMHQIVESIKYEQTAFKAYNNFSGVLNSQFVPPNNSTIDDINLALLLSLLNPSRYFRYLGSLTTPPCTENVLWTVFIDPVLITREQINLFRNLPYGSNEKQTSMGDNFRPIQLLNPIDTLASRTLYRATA
Format: biochemical
Text: stopped-flow CO2 hydrase assay on SmCA

Q: How did the Ki turn out when NCCc1ccc(S(N)(=O)=O)cc1 [compound 6, 6] was run?
A: 7240 ± 144 nM

Same assay, conditions: read-out: SmCA ^b

Q: Which Ki does the source give for Nc1cc(C(F)(F)F)c(S(N)(=O)=O)cc1S(N)(=O)=O [compound 11, 11] here?
A: 183 ± 9.1 nM

Q: Which Ki does the source give for Nc1cccc(S(N)(=O)=O)c1 [compound 1, 1] here?
A: 8420 ± 177 nM

Q: Nc1ccc(S(=O)(=O)NCc2ccc(S(N)(=O)=O)cc2)cc1 [compound 23, 23] was tested. Which Ki did it give?
A: 524 ± 15.7 nM

Q: How did the Ki turn out when NS(=O)(=O)c1ccc(O)cc1 [compound 15, 15] was run?
A: 758 ± 26.5 nM

Q: For Nc1cc(Cl)c(S(N)(=O)=O)cc1S(N)(=O)=O [compound 12, 12], which Ki is on record?
A: 645 ± 19.9 nM

Q: With NS(=O)(=O)c1cc(Cl)cc(Cl)c1O [compound 10, 10] as the compound, how does the Ki read?
A: 9270 ± 185 nM

Q: How did the Ki turn out when Nc1ccc(S(=O)(=O)Nc2ccc(S(N)(=O)=O)cc2)cc1 [compound 22, 22] was run?
A: 550 ± 14.8 nM

Q: With NS(=O)(=O)c1ccc(CO)cc1 [compound 16, 16] as the compound, how does the Ki read?
A: 1460 ± 32.1 nM

Q: With Nc1ccc(S(N)(=O)=O)cc1Br [compound 9, 9] as the compound, how does the Ki read?
A: 808 ± 16.9 nM

Q: Nc1nnc(S(N)(=O)=O)s1 [compound 13, 13] was tested. Which Ki did it give?
A: 137 ± 6.5 nM

Q: How did the Ki turn out when Nc1nccc(Nc2ccc(S(N)(=O)=O)cc2)n1 [compound 19, 19] was run?
A: 1830 ± 36.6 nM

Q: How did the Ki turn out when Nc1ccc(S(=O)(=O)Nc2nnc(S(N)(=O)=O)s2)cc1 [compound 20, 20] was run?
A: 124 ± 5.9 nM

Q: Which Ki does the source give for Nc1ccc(S(N)(=O)=O)cc1Cl [compound 8, 8] here?
A: 737 ± 19.1 nM

Q: How did the Ki turn out when Nc1ccc(S(=O)(=O)NCCc2ccc(S(N)(=O)=O)cc2)cc1 [compound 24, 24] was run?
A: 183 ± 4.5 nM

Q: Which Ki does the source give for NS(=O)(=O)c1cccc(S(N)(=O)=O)c1 [compound 3, 3] here?
A: 916 ± 23.8 nM

Q: Which Ki does the source give for Nc1ccc(S(N)(=O)=O)cc1F [compound 7, 7] here?
A: 3190 ± 70 nM

Q: How did the Ki turn out when Cn1nc(S(N)(=O)=O)sc1=N [compound 14, 14] was run?
A: 325 ± 6.5 nM

Q: How did the Ki turn out when NS(=O)(=O)c1ccc(C(=O)O)cc1 [compound 18, 18] was run?
A: 821 nM

Q: How did the Ki turn out when Cc1ccc(S(N)(=O)=O)cc1 [compound 4, 4] was run?
A: 4530 ± 90 nM

Q: For NCc1ccc(S(N)(=O)=O)cc1 [compound 5, 5], which Ki is on record?
A: 9560 ± 191 nM

Q: Which Ki does the source give for NS(=O)(=O)c1ccc(CCNS(=O)(=O)c2ccc([N+](=O)[O-])cc2CO)cc1 [compound 21, 21] here?
A: 163 ± 6.5 nM

Q: How did the Ki turn out when Nc1ccc(S(N)(=O)=O)cc1 [compound 2, 2] was run?
A: 6820 ± 150 nM

Q: Which Ki does the source give for NS(=O)(=O)c1ccc(CCO)cc1 [compound 17, 17] here?
A: 606 ± 21.3 nM

Reference: PMC7084386, “Sulfonamide Inhibition Studies of an α-Carbonic Anhydrase from Schistosoma mansoni, a Platyhelminth Parasite Responsible for Schistosomiasis” (International Journal of Molecular Sciences, 2020)
